Values quoted from earlier work, collected in US20100028296A1, “Use of cytokine-derived peptides in treatment of pain and neurodegenerative disease” (priority 2005, published 2010).
Where no end group is shown, it is not given here.

Key:
[1] = test system: chronic constriction injury model of neuropathic pain; conditions: in vivo
[2] = test system: immunomodulatory functions known for human IL-10; conditions: at generally different dosage levels
[3] = native dimer, approximately 37 kDa
[4] = test system: dynorphin-induced, IL-1β-mediated mechanical allodynia; conditions: intrathecal; administered 30 minutes or 6 hours after induction of allodynia
[5] = test system: excitotoxic spinal cord injury; conditions: given 30 minutes following injury

Molecule: O=C1CCC(N2C(=O)c3ccccc3C2=O)C(=O)N1 (stereo not drawn) [thalidomide]
- mechanical allodynia [1]: reduces
- thermal hyperalgesia [1]: reduces

Molecule: AYMTMKIRN [IT, C-terminal nonapeptide from human IL-10 protein]
- functional activities compared with intact IL-10 [2]: shares some, but not all, of the functional activities of intact IL-10

Molecule: IL-10: anti-inflammatory cytokine, dimer of approximately 37 kDa in its native state
- crossing of the intact blood brain barrier [3]: does not cross the intact blood brain barrier in appreciable amounts
- onset of mechanical allodynia [4]: blocks the onset
- pathological pain behaviors [5]: decreased pathological pain behaviors
